The values below come from ChEMBL document CHEMBL4321795, “Metabolism by Aldehyde Oxidase: Drug Design and Complementary Approaches to Challenges in Drug Discovery” (J Med Chem, 2019).

Data set [1] deals with T1, Aldehyde oxidase (Homo sapiens, UniProt Q06278).
T1 sequence (Q06278 whole entry): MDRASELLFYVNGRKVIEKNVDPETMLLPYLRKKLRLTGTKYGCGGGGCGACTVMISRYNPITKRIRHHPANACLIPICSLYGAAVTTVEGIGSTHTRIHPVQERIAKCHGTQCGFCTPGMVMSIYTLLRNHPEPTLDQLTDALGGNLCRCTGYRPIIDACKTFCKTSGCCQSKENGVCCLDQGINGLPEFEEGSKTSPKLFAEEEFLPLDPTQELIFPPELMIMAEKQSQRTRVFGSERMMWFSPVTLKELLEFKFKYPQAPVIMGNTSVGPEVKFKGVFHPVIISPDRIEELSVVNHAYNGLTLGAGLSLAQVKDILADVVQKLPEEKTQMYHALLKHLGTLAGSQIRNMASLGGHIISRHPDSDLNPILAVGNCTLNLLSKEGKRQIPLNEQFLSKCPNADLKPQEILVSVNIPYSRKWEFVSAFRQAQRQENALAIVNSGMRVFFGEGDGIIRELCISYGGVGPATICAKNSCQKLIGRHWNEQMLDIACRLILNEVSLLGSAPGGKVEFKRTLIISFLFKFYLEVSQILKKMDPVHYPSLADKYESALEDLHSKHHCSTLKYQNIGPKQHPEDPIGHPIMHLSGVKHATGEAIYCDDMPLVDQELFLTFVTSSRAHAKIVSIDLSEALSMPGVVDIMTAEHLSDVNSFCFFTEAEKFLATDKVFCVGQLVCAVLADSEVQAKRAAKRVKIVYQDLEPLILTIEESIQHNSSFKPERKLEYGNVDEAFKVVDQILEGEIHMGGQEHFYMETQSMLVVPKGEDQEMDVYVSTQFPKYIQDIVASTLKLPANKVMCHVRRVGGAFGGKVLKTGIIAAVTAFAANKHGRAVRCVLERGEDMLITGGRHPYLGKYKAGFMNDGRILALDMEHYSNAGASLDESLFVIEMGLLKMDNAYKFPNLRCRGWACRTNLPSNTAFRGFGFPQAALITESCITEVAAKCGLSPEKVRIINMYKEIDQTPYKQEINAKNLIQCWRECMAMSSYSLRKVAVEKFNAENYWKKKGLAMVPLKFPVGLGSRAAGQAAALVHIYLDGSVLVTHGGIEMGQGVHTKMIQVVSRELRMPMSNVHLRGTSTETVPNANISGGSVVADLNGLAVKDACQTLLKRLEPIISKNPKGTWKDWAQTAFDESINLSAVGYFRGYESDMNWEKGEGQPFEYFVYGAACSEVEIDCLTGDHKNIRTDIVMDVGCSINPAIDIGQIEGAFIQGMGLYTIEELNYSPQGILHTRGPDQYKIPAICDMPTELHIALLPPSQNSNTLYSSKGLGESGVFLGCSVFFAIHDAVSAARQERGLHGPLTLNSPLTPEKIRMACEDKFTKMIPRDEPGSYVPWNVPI
In words: Substrate activity at aldehyde oxidase in human liver S9 fractions assessed as enzyme-mediated 2-oxo metabolite formation by measuring half life at 1 uM after 10 to 120 mins by liquid chromatography-tandem mass spectrometry. In kind it is ADME, subcellular. The settings on record: s9, 1 µM.

In data set [2] the target is T2, Cytochrome P450 3A4 (Homo sapiens, UniProt P08684). As to the kind of experiment: Substrate activity at human CYP3A4 assessed as increase in midazolam AUC relative to control. In kind it is ADME.
T2 sequence (P08684 whole entry): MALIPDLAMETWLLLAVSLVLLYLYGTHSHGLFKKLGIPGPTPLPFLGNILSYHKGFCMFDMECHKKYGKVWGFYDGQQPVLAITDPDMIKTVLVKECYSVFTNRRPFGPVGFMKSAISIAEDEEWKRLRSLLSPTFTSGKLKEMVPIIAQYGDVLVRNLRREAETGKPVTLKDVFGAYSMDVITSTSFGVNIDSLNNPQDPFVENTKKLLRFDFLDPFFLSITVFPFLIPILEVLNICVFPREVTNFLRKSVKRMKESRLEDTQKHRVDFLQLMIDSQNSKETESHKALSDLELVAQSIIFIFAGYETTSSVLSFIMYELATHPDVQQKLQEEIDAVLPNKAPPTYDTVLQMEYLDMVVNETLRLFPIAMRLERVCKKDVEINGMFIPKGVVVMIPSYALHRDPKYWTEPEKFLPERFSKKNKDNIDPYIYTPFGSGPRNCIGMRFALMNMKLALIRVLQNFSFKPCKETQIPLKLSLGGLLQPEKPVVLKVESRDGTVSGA
Data set [3] concerns the target T2, Cytochrome P450 3A4. As to the kind of experiment: Substrate activity at human CYP3A4 assessed as increase in methyl-prednisolone AUC relative to control. In kind it is ADME.
Data set [4] addresses T2, Cytochrome P450 3A4. As to the kind of experiment: Substrate activity at human CYP3A4 assessed as increase in atorvastatin AUC relative to control. Format: ADME.
Data set [5] is described as follows: Oral bioavailability in human. Format: ADME, organism-based. Conditions: in vivo.
For data set [6], the target named is T1, Aldehyde oxidase. As to the kind of experiment: Substrate activity at aldehyde oxidase in human liver cytosol assessed as enzyme-mediated drug uptake at 1 uM. Format: ADME, subcellular.
Data set [7] deals with T1, Aldehyde oxidase. As to the kind of experiment: Substrate activity at aldehyde oxidase in human hepatocytes assessed as enzyme-mediated drug uptake at 1 uM. In kind it is ADME, cell-based.
Data set [8] has as its target T3, Aldehyde oxidase 1 (Rattus norvegicus, UniProt Q9Z0U5).
T3 sequence (Q9Z0U5 whole entry): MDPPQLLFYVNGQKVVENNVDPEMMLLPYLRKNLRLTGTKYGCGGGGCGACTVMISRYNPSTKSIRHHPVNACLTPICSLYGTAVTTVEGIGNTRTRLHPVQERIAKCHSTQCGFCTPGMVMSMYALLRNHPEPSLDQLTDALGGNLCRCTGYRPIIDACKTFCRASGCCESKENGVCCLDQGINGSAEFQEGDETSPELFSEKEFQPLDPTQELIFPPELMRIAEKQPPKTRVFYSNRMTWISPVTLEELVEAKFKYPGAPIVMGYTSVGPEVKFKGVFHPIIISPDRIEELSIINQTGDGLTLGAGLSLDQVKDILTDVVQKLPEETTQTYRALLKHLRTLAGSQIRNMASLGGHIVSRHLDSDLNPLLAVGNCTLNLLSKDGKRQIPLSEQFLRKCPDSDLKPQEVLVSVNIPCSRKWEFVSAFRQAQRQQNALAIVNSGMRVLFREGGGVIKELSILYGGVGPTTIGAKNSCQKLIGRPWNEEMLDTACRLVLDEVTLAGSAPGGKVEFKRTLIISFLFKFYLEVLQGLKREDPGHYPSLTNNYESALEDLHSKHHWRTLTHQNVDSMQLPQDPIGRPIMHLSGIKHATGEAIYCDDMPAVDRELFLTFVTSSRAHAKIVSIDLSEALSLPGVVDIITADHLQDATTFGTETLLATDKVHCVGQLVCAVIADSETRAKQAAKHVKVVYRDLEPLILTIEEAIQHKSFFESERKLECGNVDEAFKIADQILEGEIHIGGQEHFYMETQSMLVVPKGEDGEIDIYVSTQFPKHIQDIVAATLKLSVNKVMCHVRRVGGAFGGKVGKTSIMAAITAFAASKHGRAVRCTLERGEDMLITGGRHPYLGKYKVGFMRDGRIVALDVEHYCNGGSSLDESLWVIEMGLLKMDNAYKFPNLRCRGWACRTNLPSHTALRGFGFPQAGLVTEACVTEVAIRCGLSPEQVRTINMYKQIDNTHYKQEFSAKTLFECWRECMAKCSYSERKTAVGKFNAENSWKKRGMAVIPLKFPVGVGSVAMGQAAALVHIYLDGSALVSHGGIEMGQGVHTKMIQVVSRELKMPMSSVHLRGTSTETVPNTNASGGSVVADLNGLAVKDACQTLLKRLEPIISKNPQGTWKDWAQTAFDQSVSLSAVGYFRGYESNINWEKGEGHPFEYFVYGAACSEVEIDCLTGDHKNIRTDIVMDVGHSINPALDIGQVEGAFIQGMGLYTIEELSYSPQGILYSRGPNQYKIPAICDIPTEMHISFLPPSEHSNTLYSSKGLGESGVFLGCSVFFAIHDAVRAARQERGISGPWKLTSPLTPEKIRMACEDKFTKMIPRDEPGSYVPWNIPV
As to the kind of experiment: Substrate activity at aldehyde oxidase in rat liver cytosol assessed as enzyme-mediated drug uptake at 1 uM. In kind it is ADME, subcellular.

Data set [9] has as its target T4, Aldehyde oxidase 1 (Cavia porcellus, UniProt H9TB17).
T4 sequence (H9TB17 whole entry): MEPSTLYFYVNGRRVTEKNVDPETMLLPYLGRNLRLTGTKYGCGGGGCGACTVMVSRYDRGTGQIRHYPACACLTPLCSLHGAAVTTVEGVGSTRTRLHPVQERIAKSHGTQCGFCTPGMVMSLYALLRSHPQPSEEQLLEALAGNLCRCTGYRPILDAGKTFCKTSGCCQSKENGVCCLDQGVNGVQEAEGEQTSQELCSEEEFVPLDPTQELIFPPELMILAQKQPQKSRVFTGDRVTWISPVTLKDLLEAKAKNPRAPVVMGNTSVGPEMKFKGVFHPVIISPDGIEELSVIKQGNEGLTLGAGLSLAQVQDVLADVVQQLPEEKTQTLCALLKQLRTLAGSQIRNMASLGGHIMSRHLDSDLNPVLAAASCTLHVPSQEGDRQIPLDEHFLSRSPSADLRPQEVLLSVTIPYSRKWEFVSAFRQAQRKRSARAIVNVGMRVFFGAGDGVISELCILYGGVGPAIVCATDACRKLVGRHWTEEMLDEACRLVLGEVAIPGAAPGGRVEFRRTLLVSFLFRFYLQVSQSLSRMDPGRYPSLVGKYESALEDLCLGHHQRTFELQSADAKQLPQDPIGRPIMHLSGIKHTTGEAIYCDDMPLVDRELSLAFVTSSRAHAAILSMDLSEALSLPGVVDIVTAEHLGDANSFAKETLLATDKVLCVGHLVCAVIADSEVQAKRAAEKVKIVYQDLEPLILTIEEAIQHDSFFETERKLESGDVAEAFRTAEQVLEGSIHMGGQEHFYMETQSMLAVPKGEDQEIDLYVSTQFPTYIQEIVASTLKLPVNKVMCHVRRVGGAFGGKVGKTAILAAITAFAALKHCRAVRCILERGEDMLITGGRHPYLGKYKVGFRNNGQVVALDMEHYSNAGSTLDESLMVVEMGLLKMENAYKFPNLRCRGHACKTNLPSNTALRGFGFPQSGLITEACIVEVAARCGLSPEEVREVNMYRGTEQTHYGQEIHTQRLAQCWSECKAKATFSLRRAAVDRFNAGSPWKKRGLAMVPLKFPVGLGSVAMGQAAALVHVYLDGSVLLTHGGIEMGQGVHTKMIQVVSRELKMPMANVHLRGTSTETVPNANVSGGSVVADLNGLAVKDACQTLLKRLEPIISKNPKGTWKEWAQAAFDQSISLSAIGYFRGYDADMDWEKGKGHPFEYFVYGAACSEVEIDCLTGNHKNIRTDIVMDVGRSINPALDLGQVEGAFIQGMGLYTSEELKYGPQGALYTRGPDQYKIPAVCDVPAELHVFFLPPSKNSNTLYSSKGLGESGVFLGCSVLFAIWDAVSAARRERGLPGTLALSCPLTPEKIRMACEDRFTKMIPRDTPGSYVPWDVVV
In words: Substrate activity at aldehyde oxidase in guinea pig liver cytosol assessed as enzyme-mediated drug uptake at 1 uM. In kind it is ADME, subcellular.

Data set [10] in a line: Oral bioavailability in BDF1 mouse at 50 mg/kg after 2 to 24 hrs by HPLC analysis. In kind it is ADME, organism-based. Conditions: in vivo.
The nature of data set [11]: Oral bioavailability in BDF1 mouse at 25 mg/kg after 2 to 24 hrs by HPLC analysis. In kind it is ADME, organism-based. The settings on record: in vivo.
Data set [12] in a line: Drug level in Beagle dog plasma treated with [14C]momelotinib at 15 mg/kg, po measured up to 12 hrs by liquid scintillation counting. In kind it is ADME, organism-based, Canis lupus familiaris. Conditions: in vivo.
Data set [13] addresses T3, Aldehyde oxidase 1. As to the kind of experiment: Drug level in Sprague-Dawley rat plasma treated with [14C]momelotinib assessed as aldehyde oxidase mediated compound formation at 15 mg/kg, po measured up to 48 hrs by liquid scintillation counting. Conditions: in vivo. In kind it is ADME, organism-based.
Data set [14] concerns the target T1, Aldehyde oxidase. In words: Drug level in human plasma treated with [14C]momelotinib assessed as aldehyde oxidase mediated compound formation at 200 mg, po measured at 24 hrs interval for 504 hrs post dose by liquid scintillation counting. In kind it is ADME, organism-based. The settings on record: in vivo.
The target of data set [15] is T1, Aldehyde oxidase. In words: Substrate activity at aldehyde oxidase in human liver cytosol assessed as enzyme-mediated M2 metabolite formation at 10 uM after 90 mins by LC-MS/MS analysis. In kind it is ADME, subcellular.

As a reminder, the bioavailability is the share of a dose that reaches the circulation, judged against a reference dose that is usually intravenous. A lower bioavailability goes with little systemic uptake.

As to `COCCc1c(C(=O)NC(=N)N)cnn1-c1cccc2ncccc12`, the t1/2 in data set [1] turned out to be 2 h.

Turning to `CC[C@@](C)(Nc1ccnc(-c2c[nH]c3ncccc23)n1)C(=O)NCC(F)(F)F` [DECERNOTINIB], the “fold change (FC)” value in data set [2] is reported as 12; in [3], 4.3; in data set [4], 2.7.

On to `Nc1nc2c(ncn2CCC(CO)CO)c(=O)[nH]1` [PENCICLOVIR], for which the bioavailability in data set [5] worked out at 77%.

On to `N=C(N)NC(=O)c1cnn(-c2cccc3ncccc23)c1C1CC1` [ZONIPORIDE], for which the K in data set [6] is 3.6 to 6.1; in data set [7], 1.9; in data set [8] it was 3.6 to 6.1; in data set [9], 3.6 to 6.1.

On to `Oc1ncc(F)cn1`, for which the bioavailability is 78% in [10] and 100% in data set [11].

`N#CCNC(=O)c1ccc(-c2ccnc(Nc3ccc(N4CCOCC4=O)cc3)n2)cc1`: the results for the Drug uptake in [12], in data set [13] and in [14] were under 10%, under 10% and 64.2%, respectively.

Turning to `CCCN1CC(c2ccc(S(C)(=O)=O)cc2)=C(c2ccc(C=O)cc2)C1=O`, the Activity in [15] stood at 77%.
